Literature values as cited in PMC4990482 (Nature chemical biology, 2016).

System: EZH2

CC[C@H](C)n1cc(C)c2c(C(=O)NCc3c(C)cc(C)[nH]c3=O)cc(-c3ccc(N4CCNCC4)nc3)cc21 [GSK126]
selectivity for EZH2 versus EZH1: > 150 fold
